This experiment deals with HEK293 cells. Briefly: HEK293 VLCFA-LPC IC50 determination (13C-labeled C26:0 LPC by UHPLC/MS). The experiment is classed as cell-based, human. The following applies: Homo sapiens, HEK293, HEK293 cells; average of one or more replicates; read-out: Average HEK293 IC50. Summed up: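 Suspension HEK293 cells (final 0.5 million/mL after mixing with equal volume) incubated 48 hours with compound plus 13C-acetate (1.0 mg/mL in added media), shaking at 37° C. Lipids extracted with hexane/isopropanol or methanol, C13:0 LPC standard. UHPLC/MS of 13C-labeled C26:0 LPC (638.500/104.100 m/z); IC50 by four-parameter fit.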

Where only a bound is given, the exact number is not on record here.

With `COc1ncc(-n2ccc(NC(=O)C3(c4ncccc4F)CC34CC4)n2)cc1F` (centres unmarked) [Compound 525, N-[1-(5-fluoro-6-methoxy-3-pyridyl)pyrazol-3-yl]-2-(3-fluoro-2-pyridyl)spiro[2.2]pentane-2-carboxamide], the IC50 stood at 680 nM.
Take `O=C(Nc1ccn(-c2ccncc2)n1)C1(c2ncccc2F)CC12CC2` (centres unmarked) [Compound 526, 2-(3-fluoro-2-pyridyl)-N-[1-(4-pyridyl)pyrazol-3-yl]spiro[2.2]pentane-2-carboxamide]: the IC50 is 1900 nM.
The result for `COc1cc(-n2ccc(NC(=O)C3(c4ncccc4F)CC34CC4)n2)ccn1` (centres unmarked) [Compound 527, 2-(3-fluoro-2-pyridyl)-N-[1-(2-methoxy-4-pyridyl)pyrazol-3-yl]spiro[2.2]pentane-2-carboxamide] reads greater than 2000 nM; that for `CC1CC1(C(=O)Nc1ccn(-c2ccncc2)n1)c1ncccc1F` (centres unmarked) [Compound 528, 1-(3-fluoro-2-pyridyl)-2-methyl-N-[1-(4-pyridyl)pyrazol-3-yl]cyclopropanecarboxamide], 270 nM.
Consider `O=C(Nc1ccn(-c2cncc(F)c2)n1)C1(c2ncccn2)CC1` [Compound 529, N-[1-(5-fluoro-3-pyridyl)pyrazol-3-yl]-1-pyrimidin-2-yl-cyclopropanecarboxamide], for which the IC50 was determined as 1300 nM.
Turning to `O=C(Nc1ccn(-c2cncc(Cl)c2)n1)C1(c2ncccn2)CC1` [Compound 530, N-[1-(5-chloro-3-pyridyl)pyrazol-3-yl]-1-pyrimidin-2-yl-cyclopropanecarboxamide], the IC50 is greater than 5000 nM.
`O=C(Nc1ccn(-c2ccc(F)c(F)c2)n1)C1(c2ncccn2)CC1` [Compound 532, N-[1-(3,4-difluorophenyl)pyrazol-3-yl]-1-pyrimidin-2-yl-cyclopropanecarboxamide]: the IC50 is greater than 5000 nM.
As for `Cc1cc(NC(=O)C2(c3ncccn3)CC2)nn1-c1ccc(F)cc1F` [Compound 533, N-[1-(2,4-difluorophenyl)-5-methyl-pyrazol-3-yl]-1-pyrimidin-2-yl-cyclopropanecarboxamide], the IC50 was greater than 2000 nM.
Regarding `O=C(Nc1ccn(-c2cc(F)cc(F)c2)n1)C1(c2ncccn2)CC1` [Compound 534, N-[1-(3,5-difluorophenyl)pyrazol-3-yl]-1-pyrimidin-2-yl-cyclopropanecarboxamide], the 50% inhibitory concentration (IC50) is greater than 5000 nM.
On to `COc1ncc(-n2ccc(NC(=O)C3(c4ncccn4)CC3)n2)cc1F` [Compound 535, N-[1-(5-fluoro-6-methoxy-3-pyridyl)pyrazol-3-yl]-1-pyrimidin-2-yl-cyclopropanecarboxamide], for which the IC50 was greater than 5000 nM.
With `O=C(Nc1ccn(-c2ccncc2)n1)C1(c2ncccn2)CC1` [Compound 536, N-[1-(4-pyridyl)pyrazol-3-yl]-1-pyrimidin-2-yl-cyclopropanecarboxamide], the IC50 is greater than 5000 nM.

The record behind these values is patent US20180251431A1 (VERTEX PHARMACEUTICALS INCORPORATED, priority 2016, published 2018).
